Values joined by “and” are separate entries in the source; they are usually repeats but may differ in a detail not shown here. Equal entries are not always repeated. “Also recorded” adds a separate entry of the source.
Tests used:
[1] = test system: Plasmodium yoelii (17×); assay: Sporozoite induced test in mouse (causal prophylactic activity); assay type: in vivo; settings: sporozoite challenged CD-1 mice; single dose 4 hours before inoculation; oral administration
Protocol: The causal prophylactic antimalarial activity of the new carbamate derivatives were assessed in a sporozoites challenged mouse model according to the following protocol and the results are shown in Table 4 and Table 5.
Each compound was ground with a mortar and pestle and suspended in 0.5% hydroxyethylcellulose and 0.1% Tween 80 for compounds to be administered PO and those given SC were suspended in peanut oil. Each compound is prepared at 3 different dose levels.
Compounds were administered either PO or SC to mice once 4 hours before inoculation of sporozoites.
Four-week-old male CD-1 mice, purchased from Charles River and weighing about 16 to about 17 grams were placed 5 per cage and allowed to acclimate for 4 days before being treated and then inoculated with sporozoites. They were fed food and water ad-lib and maintained at 76° F. with 12 hour light and 12 hour darkness. The cages and water bottles were changed biweekly. The mice are weighed on Days 0, 3 and 6 then biweekly when blood films were taken.
Plasmodium yoelii (17×) was used to infect mice that will be used to infect the mosquitoes.
Mice were given a single dose of test compound 4 hours before being inoculated intraperitoneally with 2.5×10^5 sporozoites of Plasmodium yoelii on Day 0. Whole body weights were taken on Day 0 and Day 6 then twice a week for 31 days. A blood film was taken on Day 5 and then twice a week for 31 days. Mice loosing greater than about 20% of their body weight were sacrificed. All mice alive on Day 31 with no parasites in a blood film were considered cured. Donor mice used to infect the mosquitoes were infected with 2.5×10^4 parasitized erythrocytes. The mosquitoes were allowed to feed on these malaria-infected mice on Day 4 of their infection when the parasitemia was low.
A compound was considered active against either the sporozoite or the EE stage if no parasites were found in the blood films taken on Day 5 or on subsequent blood films taken weekly for 31 days.
Mice alive on Day 31 with no parasites found in any blood films were considered cured.

[2] = test system: P. cynomolgi sporozoites; assay: Oral causal prophylactic assay in Rhesus monkey (compound 3 IM; 4b and 3c PO); assay type: in vivo, Plasmodium cynomolgi; settings: per monkey
Protocol: To test the causal prophylactic intramuscular potency of the purified isomer of compound 3 and oral potency of two carbamate derivatives of 2-guanidinylimidazolidinedione (4b and 3c) the following assay was conducted.
Fourteen rhesus monkeys were issued.
A donor monkey was inoculated intravenously with 1.3 ml, freshly-thawed frozen infected red blood cell (DA310). When the monkey developed gametocytemia, mosquito feedings were conducted on days 15 and 16 after inoculation. The donor monkey was treated with intramuscular chloroquine hydrochloride (CQ) 10 mg/kg, once a day after the second mosquito feeding and continued for 6 days.
On day 0 of the beginning of the assay, each of the 14 monkeys was inoculated intravenously with 1-ml inoculum of suspension containing about 1.0×10^6 P. cynomolgi sporozoites harvested from Anopheles dirus mosquitoes' salivary glands previously fed on the donor monkey.
All monkeys received treatment on days −1, 0 and 1. The control monkeys (Group 1) received HECT orally and the experimental animals received testing compound intramuscularly (Groups 2 and 3) or orally (Groups 4 to 7).

[3] = test system: P. cynomolgi sporozoites; assay: Causal prophylactic assay for intramuscular administration in Rhesus monkey; assay type: in vivo, Plasmodium cynomolgi
Protocol: The causal prophylactic antimalarial activity of the two 2-guanidinylimidazolidinedione carbamates 3c and 4b were assessed against Plasmodium cynomolgi in Rhesus monkey. Two monkeys were used in each test group. The average control animal developed parasitemia is about 10 days after inoculation of about 1×10^6 P. cynomolgi sporozoites harvested from Anopheles dirus.
In order to study the causal prophylactic activity of the 2-guanidinylimidazolidinedione compounds of the present invention, the following assay was conducted. Twelve rhesus monkeys were issued. The monkeys were randomized to 2 control animals and 5 groups of 2 experimental animals each.
A donor monkey was inoculated intravenously with 1.3 ml, freshly-thawed frozen infected red blood cells (DA310). The experiments were conducted in US Army oversea laboratory, AFRIMS, Bankoku, Thailand. When the donor monkey developed gametocytemia, mosquito feedings were conducted on days 13 and 14 after inoculation. The donor monkey was treated with intramuscular chloroquine hydrochloride (CQ) 10 mg/kg, once a day after the second mosquito feeding and continued for 7 days.
On day 0 (beginning of assay), each of the 12 monkeys was inoculated intravenously with 1-ml inoculum of suspension containing about 1.0×10^6 P. cynomolgi sporozoites harvested from Anopheles dirus mosquitoes' salivary glands previously fed on the donor monkey. See Corcoran, K D, et al. (1993) Am. J. Trop. Med. Hyg. 49:473–477, and Shanks, G D, et al. (2001) Clinical Infectious Diseases 33:1968–1974, which are herein incorporated by reference.
All monkeys received treatment on days −1, 0 and 1. The control monkeys received dimethylsulfoxide (DMSO) and the experimental animals received testing compound intramusculary.

[4] = Solubility and characteristics of the compounds in the dosing vehicle; assay type: physicochemical

N-(3,4-dichlorophenyl)-N′-(benzyloxycarbonyl)-N″-(1-isopropyl-4,5-dioxo-imidazolidin-2-ylidene)-guanidine [Compound 3d]
Minimum Protective Dose Against P. yoelii [1]: >160 mg/kg

C=CCCOC(=O)N=C(N=C1NC(=O)C(=O)N1C(C)C)Nc1ccc(Cl)c(Cl)c1 [Compound 3g, N-(3,4-dichlorophenyl)-N′-(3-butenyloxycarbonyl)-N″-(1-isopropyl-4,5-dioxoimidazolidin-2-ylidene)-guanidine]
Minimum Protective Dose Against P. yoelii [1]: 160 mg/kg

COc1cc(C)c2c(Oc3cccc(C(F)(F)F)c3)c(OC)cc(NC(C)CCCN)c2n1 (centres unmarked) [Tafenoguine, reference compound]
Minimum Protective Dose Against P. yoelii [1]: 2.5 mg/kg

CC(C)NC(=N)NC1=NC(=O)C(=O)N1c1ccc(Cl)c(Cl)c1 [Compound 4, N-[1-(3,4-dichlorophenyl)-4,5-dioxo-4,5-dihydro-1H-imidazol-2-yl]-N′-isopropylguanidine]
melting point: 244 °C and 245 °C | Minimum Protective Dose Against P. yoelii [1]: 5 mg/kg

N=C(N=C1NC(=O)C(=O)N1c1ccc(Cl)c(Cl)c1)Nc1ccc(Cl)c(Cl)c1 [Compound 19, N-(3,4-dichlorophenyl)-N′-[1-(3,4-dichlorophenyl)-4,5-dioxo-imidazolidin-2-ylidene]-guanidine]
melting point: 220 °C

CC(C)COC(=O)N=C(N=C1NC(=O)C(=O)N1c1ccc(Cl)c(Cl)c1)NC(C)C [Compound 4b, N-[1-(3,4-dichlorophenyl)-4,5-dioxo-imidazolidin-2-ylidene]-N′-isopropyl-N″-(isobutyloxycarbonyl)guanidine]
Day of Parasitemia ([2]; 10 mg/kg PO): 8 days | Result (delay the parasitemia) ([2]; 10 mg/kg PO, 10 mg/kg): not protected; also recorded: No activity | Day of Parasitemia ([2]; 30 mg/kg PO): 8 days | Result (delay the parasitemia) ([2]; 30 mg/kg PO, 30 mg/kg): not protected; also recorded: No activity | Minimum Protective Dose Against P. yoelii [1]: 2.5 mg/kg | Day of Parasitemia ([3]; 10 mg/kg IM on days -1, 0 and 1, per monkey, 10 mg/kg): Parasitemia on day 47 and Parasite free on day 100 and 47 day and Remain parasite free | Result (causal prophylaxis = parasite free for 100 days after treatment) ([3]; 10 mg/kg IM, 10 mg/kg): protected one monkey; also recorded: Causal prophylaxis; also recorded: Delay the parasitemia | Delay of parasitemia ([3]; 10 mg/kg IM, the monkey not protected): 34 days | Day of Parasitemia ([3]; 30 mg/kg IM on days -1, 0 and 1, per monkey, 30 mg/kg): stayed parasite free 100 days after treatment; also recorded: Parasite free on day 100; also recorded: Remain parasite free | Result (causal prophylaxis = parasite free for 100 days after treatment) ([3]; 30 mg/kg IM, 30 mg/kg): protected; also recorded: Causal prophylaxis | Protective / prophylactic activity (in words) ([3]; 10 and 30 mg/kg, intramuscular): partial to complete prophylactic activity; also recorded: protective activity | Sediment ([4]; vehicle DMSO, dosage 10 mg/kg): None | Solubility ([4]; vehicle DMSO, dosage 10 mg/kg): Good | Supernatant ([4]; vehicle DMSO, dosage 10 mg/kg): Clear | Supernatant ([4]; vehicle DMSO, dosage 30 mg/kg): Clear | Solubility ([4]; vehicle HECT, dosage 10 mg/kg): Moderate | Supernatant ([4]; vehicle HECT, dosage 10 mg/kg): Turbid | Solubility ([4]; vehicle HECT, dosage 30 mg/kg): Moderate | Supernatant ([4]; vehicle HECT, dosage 30 mg/kg): Turbid

C[C@H]1[C@@H](O)O[C@@H]2O[C@@]3(C)CC[C@H]4[C@H](C)CC[C@@H]1[C@@]24OO3 [Dihyroartemisinin, reference compound]
Minimum Protective Dose Against P. yoelii [1]: 160 mg/kg

CCCCCCOC(=O)N=C(N=C1NC(=O)C(=O)N1c1ccc(Cl)c(Cl)c1)NC(C)C [Compound 4e, N-[1-(3,4-dichlorophenyl)-4,5-dioxo-imidazolidin-2-ylidene]-N′-isopropyl-N″-(1-hexyloxycarbonyl)guanidine]
Minimum Protective Dose Against P. yoelii [1]: 5 mg/kg

COc1cc(NC(C)CCCN)c2ncccc2c1 (centres unmarked) [Primaquine, reference compound]
Minimum Protective Dose Against P. yoelii [1]: 40 mg/kg

N-(3,4-dichloro-phenyl)-N′-(5-methyl-2-oxo-1,3-dioxol-4-yl)methyl-N″-(1-isopropyl-4,5-dioxo-imidazolidin-2-ylidene)guanidine [Compound 3f]
Minimum Protective Dose Against P. yoelii [1]: >40 mg/kg

CCOC(=O)N=C(N=C1NC(=O)C(=O)N1C(C)C)Nc1ccc(Cl)c(Cl)c1 [Compound 3a, N-(3,4-dichlorophenyl)-N′-ethoxycarbonyl-N″-(1-isopropyl-4,5-dioxo-imidazolidin-2-ylidene)-guanidine]
melting point: 257 °C | Minimum Protective Dose Against P. yoelii [1]: 2.5 mg/kg

CC(C)NC(=NC(=O)OCc1ccccc1)N=C1NC(=O)C(=O)N1c1ccc(Cl)c(Cl)c1 [Compound 4d, N-[1-(3,4-dichlorophenyl)-4,5-dioxo-imidazolidin-2-ylidene]-N′-isopropyl-N″-(benzyloxycarbonyl)guanidine]
melting point: 211 °C | Minimum Protective Dose Against P. yoelii [1]: 10 mg/kg

CC(C)N1C(=O)C(=O)NC1=NC(=NC(=O)OCCOCc1ccccc1)Nc1ccc(Cl)c(Cl)c1 [Compound 3h, N-(3,4-dichloro-phenyl)-N′-(2-benzyloxyethoxycarbonyl)-N″-(1-isopropyl-4,5-dioxo-imidazolidin-2-ylidene)-guanidine]
Minimum Protective Dose Against P. yoelii [1]: 160 mg/kg

CC(C)N1C(=O)C(=O)NC1=NC(=NC(=O)OC(C)(C)C)Nc1ccc(Cl)c(Cl)c1 [Compound 3c, N-(3,4-dichlorophenyl)-N′-(1-isopropyl-4,5-dioxoimidazolidin-2-ylidene)-N″-(tert-butoxycarbonyl)-guanidine]
Day of Parasitemia ([2]; 10 mg/kg PO, 10 mg/kg): 9 days and 10 days | Result (delay the parasitemia) ([2]; 10 mg/kg PO, 10 mg/kg): 2 days and 1 days | Day of Parasitemia ([2]; 30 mg/kg PO, 30 mg/kg): 10 days and 11 days | Result (delay the parasitemia) ([2]; 30 mg/kg PO, 30 mg/kg): 3 days and 2 days | Minimum Protective Dose Against P. yoelii [1]: 40 mg/kg | Sediment ([4]; vehicle DMSO, dosage 10 mg/kg): None | Solubility ([4]; vehicle DMSO, dosage 10 mg/kg): Good | Sediment ([4]; vehicle DMSO, dosage 30 mg/kg): None | Solubility ([4]; vehicle DMSO, dosage 30 mg/kg): Good | Solubility ([4]; vehicle HECT, dosage 10 mg/kg): Moderate | Supernatant ([4]; vehicle HECT, dosage 10 mg/kg): Turbid | Solubility ([4]; vehicle HECT, dosage 30 mg/kg): Moderate | Supernatant ([4]; vehicle HECT, dosage 30 mg/kg): Turbid

CC(C)COC(=O)N=C(N=C1NC(=O)C(=O)N1C(C)C)Nc1ccc(Cl)c(Cl)c1 [Compound 3b, N-(3,4-dichlorophenyl)-N′-(isobutoxycarbonyl)-N″-(1-isopropyl-4,5-dioxo-imidazolidin-2-ylidene)-guanidine]
Minimum Protective Dose Against P. yoelii [1]: >40 mg/kg

CC(C)NC(=NC(=O)OC(C)(C)C)N=C1NC(=O)C(=O)N1c1ccc(Cl)c(Cl)c1 [Compound 4c, N-[1-(3,4-dichlorophenyl)-4,5-dioxo-imidazolidin-2-ylidene]-N′-isopropyl-N″-(tert-butoxycarbonyl)guanidine]
Minimum Protective Dose Against P. yoelii [1]: 1.25 mg/kg

CCCCCCOC(=O)N=C(N=C1NC(=O)C(=O)N1C(C)C)Nc1ccc(Cl)c(Cl)c1 [Compound 3e, N-(3,4-dichlorophenyl)-N′-(1-hexyloxycarbonyl)-N″-(1-isopropyl-4,5-dioxo-imidazolidin-2-ylidene)-guanidine]
Minimum Protective Dose Against P. yoelii [1]: 40 mg/kg

From patent US7101902B2, “2-guanidinylimidazolidinedione compounds and methods of making and using thereof” (The United States of America as represented by the …, priority 2003, dated 2006)
